Assay results published in patent US20260022143A1, “Cyclic Peptide Inhibitors of IL-23” (JANSSEN PHARMACEUTICA NV, priority 2022, published 2026).
Read-outs that look alike come from different tables or passages of the source. Starred links: 1 amine or outer side, 2 acyl side, 3 side chain; linkers in the order of their positions; H or OH if unused. Positions of bridges follow the written chain, without caps; N, C: chain ends. Non-standard residues stand in square brackets, D forms with d. Residues, ends and D or L forms follow the SMILES beside them. Groups on a side chain read outwards from the residue. ξ: configuration not given here. *: point of attachment. Trp(7-(3-AcNH-Ph)) = CC(=O)Nc1cccc(-c2cccc3c(C[C@H](N)C(=O)O)c[nH]c23)c1; X48 = CCCCCCCCCCCC(=O)N[C@@H](CCC(=O)*)C(=O)N[C@H](CC(=O)O)C[N+](C)(C)C; Me3N+(CH2)2O(CH2)2O(CH2)2CO = C[N+](C)(C)CCOCCOCCC(=O)*; CH2CH2OCH2CH2OCH2CH2NMe3+ = C[N+](C)(C)CCOCCOCC*; dTrp(7-Me) = Cc1cccc2c(C[C@@H](N)C(=O)O)c[nH]c12; Trp(7-Me) = Cc1cccc2c(C[C@H](N)C(=O)O)c[nH]c12; d(hLys(Me3)) = C[N+](C)(C)CCCCC[C@@H](N)C(=O)O; Abu(4-yl) = O=C([C@H](CC[*:3])N[*:1])[*:2]; dLys(Me3) = C[N+](C)(C)CCCC[C@@H](N)C(=O)O; γGlu = O=C(O)[C@H](CCC(=O)[*:2])N[*:1]; 2Nal = N[C@@H](Cc1ccc2ccccc2c1)C(=O)O; AEF = NCCOc1ccc(C[C@H](N)C(=O)O)cc1; 3Pal = N[C@@H](Cc1cccnc1)C(=O)O; Ethyl(2-guanidino) = N=C(N)NCC*; Myristoyl = CCCCCCCCCCCCCC(=O)*; Lys(Me) = CNCCCC[C@H](N)C(=O)O; Pen = CC(C)(S)[C@H](N)C(=O)O; ξLys(Me) = CNCCCCC(N)C(=O)O; αMeC = C[C@](N)(CS)C(=O)O; Thp = NC1(C(=O)O)CCOCC1; X3 = C[N+](C)(C)CCCCC*; AEEA = NCCOCCOCC(=O)O; Sar = CNCC(=O)O

Columns and labels:
[1] = biological target: T1, IL-23R (Homo sapiens, UniProt Q5VWK5); assay: IL23R Reporter Assay; type: cell-based; settings: HEK293 cells containing IL-23R, IL-12RP1 and STAT-inducible firefly luciferase reporter; 10 ng/mL IL-23 (EC90); 5 h at 37° C.; read-out: IL23R Reporter Assay
T1 construct: host or cells: HEK293
T1 sequence (Q5VWK5 24-629): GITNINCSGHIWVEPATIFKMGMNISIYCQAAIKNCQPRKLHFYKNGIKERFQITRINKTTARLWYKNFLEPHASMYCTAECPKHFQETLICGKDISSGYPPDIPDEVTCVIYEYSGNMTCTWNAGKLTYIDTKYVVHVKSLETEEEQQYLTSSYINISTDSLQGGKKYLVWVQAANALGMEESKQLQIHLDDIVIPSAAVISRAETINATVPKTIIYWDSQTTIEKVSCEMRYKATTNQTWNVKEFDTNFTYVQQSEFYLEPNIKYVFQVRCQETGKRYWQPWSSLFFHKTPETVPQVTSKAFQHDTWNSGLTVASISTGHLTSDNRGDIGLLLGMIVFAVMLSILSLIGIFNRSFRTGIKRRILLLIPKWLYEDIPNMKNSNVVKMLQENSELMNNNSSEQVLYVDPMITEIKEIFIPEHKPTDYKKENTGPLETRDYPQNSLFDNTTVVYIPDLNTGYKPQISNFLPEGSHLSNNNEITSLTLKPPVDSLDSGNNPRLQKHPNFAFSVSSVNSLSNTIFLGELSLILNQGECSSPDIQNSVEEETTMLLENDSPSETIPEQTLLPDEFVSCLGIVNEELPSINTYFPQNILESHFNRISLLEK

[2] = Exposed Polar Surface Area (EPSA); type: physicochemical; settings: SFC on Chirex 3014 column, sample 1 mM DMSO stock
Summary of the method: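 Retention-based polarity: supercritical CO2 with 20 mM ammonium formate in MeOH (5–60%, 20%/min), Chirex 3014 column, 35 °C. Calibrated against 8 standards to give EPSA (Å^2); each sample measured twice.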

| IC50 [1] | EPSA ([2]; read-out: EPSA) | Compound | EPSA [2] |
| --- | --- | --- | --- |
| 1.5 nM | 194 A^2 | CC(=O)NCCCC[C@@H]1NC(=O)[C@H](Cc2c[nH]c3c(-c4cccc(NC(C)=O)c4)cccc23)NC(=O)[C@H]([C@@H](C)O)NC(=O)[C@H](CC(N)=O)NC(=O)[C@@H](NC(=O)[C@@H](CCCC[N+](C)(C)C)NC(C)=O)C(C)(C)SSC(C)(C)[C@@H](C(=O)N[C@@H](Cc2ccc(OCCNC(=N)N)cc2)C(=O)N[C@@H](Cc2ccc3ccccc3c2)C(=O)NC2(C(=O)N[C@@H](CCC(=O)O)C(=O)N[C@@H](CC(N)=O)C(=O)N[C@@H](Cc3cccnc3)C(=O)N(C)CC(N)=O)CCOCC2)NC1=O [compound 563, MeCO-k(Me)3-Pen(3)-N-T-7(3NAcPh)W-K(Ac)-Pen(3)-AEF(G)-2Nal-THP-E-N-3Pya-Sar-CONH2] (Ac-[dLys(Me3)][Pen]NT[Trp(7-(3-AcNH-Ph))]K(Ac)[Pen]Y(Ethyl(2-guanidino))[2Nal][Thp]EN[3Pal][Sar]-NH2; disulfide 2-7) | – |
| 180 nM | 153 A^2 | CC(=O)N(C)CCCC[C@@H]1NC(=O)[C@H](Cc2c[nH]c3ccccc23)NC(=O)[C@H]([C@@H](C)O)NC(=O)[C@H](CC(=O)N(C)C)NC(=O)[C@@H](NC(=O)CCOCCOCC[N+](C)(C)C)C(C)(C)SSC(C)(C)[C@@H](C(=O)N[C@@H](Cc2ccc(OCCOCCOCC[N+](C)(C)C)cc2)C(=O)N[C@@H](Cc2c[nH]c3ccccc23)C(=O)NC2(C(=O)N[C@@H](CCCCN(C)C(C)=O)C(=O)N[C@@H](CC(N)=O)C(=O)N[C@H]3Cc4cnccc4N(CC(=O)N(C)C)C3=O)CCOCC2)NC1=O [compound 564, cPEG3aCO-Pen(3)-N(N(Me)2)-T-W-K(NMeAc)-Pen(3)-APEG3F-W-THP-K(NMeAc)-N-3Pya-Sar-CON(Me)2] | – |
| > 16600 nM | 144 A^2 | CC(=O)N(C)CCCC[C@@H]1NC(=O)[C@H](Cc2ccccc2)NC(=O)[C@H]([C@@H](C)O)NC(=O)[C@H](CC(=O)N(C)C)NC(=O)[C@@H](NC(=O)CCOCCOCC[N+](C)(C)C)C(C)(C)SSC(C)(C)[C@@H](C(=O)N[C@@H](Cc2ccc(OCCOCCOCC[N+](C)(C)C)cc2)C(=O)N[C@@H](Cc2ccccc2)C(=O)NC2(C(=O)N[C@@H](CCCCN(C)C(C)=O)C(=O)N[C@@H](CC(N)=O)C(=O)N[C@@H](Cc3cccnc3)C(=O)N(C)CC(=O)N(C)C)CCOCC2)NC1=O [compound 565, cPEG3aCO-Pen(3)-N(N(Me)2)-T-F-K(NMeAc)-Pen(3)-APEG3F-F-THP-K(NMeAc)-N-3Pya-Sar-CON(Me)2] ({Me3N+(CH2)2O(CH2)2O(CH2)2CO}-[Pen]D(NMe2)TF[Lys(Me)](Ac)[Pen]Y(CH2CH2OCH2CH2OCH2CH2NMe3+)F[Thp][Lys(Me)](Ac)N[3Pal][Sar]-NMe2; disulfide 1-6) | – |
| > 3320 nM | 137 A^2 | CC(=O)N(C)CCCC[C@@H]1NC(=O)[C@H](CC(C)C)NC(=O)[C@H]([C@@H](C)O)NC(=O)[C@H](CC(=O)N(C)C)NC(=O)[C@@H](NC(=O)CCOCCOCC[N+](C)(C)C)C(C)(C)SSC(C)(C)[C@@H](C(=O)N[C@@H](Cc2ccc(OCCOCCOCC[N+](C)(C)C)cc2)C(=O)N[C@@H](CC(C)C)C(=O)NC2(C(=O)N[C@@H](CCCCN(C)C(C)=O)C(=O)N[C@@H](CC(N)=O)C(=O)N[C@@H](Cc3cccnc3)C(=O)N(C)CC(=O)N(C)C)CCOCC2)NC1=O [compound 566, cPEG3aCO-Pen(3)-N(N(Me)2)-T-L-K(NMeAc)-Pen(3)-APEG3F-L-THP-K(NMeAc)-N-3Pya-Sar-CON(Me)2] ({Me3N+(CH2)2O(CH2)2O(CH2)2CO}-[Pen]D(NMe2)TL[Lys(Me)](Ac)[Pen]Y(CH2CH2OCH2CH2OCH2CH2NMe3+)L[Thp][Lys(Me)](Ac)N[3Pal][Sar]-NMe2; disulfide 1-6) | – |
| 3.1 nM | 172 A^2 | CC(=O)NCCCC[C@@H]1NC(=O)[C@H](Cc2c[nH]c3ccccc23)NC(=O)[C@H]([C@@H](C)O)NC(=O)[C@H](CC(N)=O)NC(=O)[C@@H](NC(=O)[C@@H](CCCC[N+](C)(C)C)NC(C)=O)CCSC[C@@](C)(C(=O)N[C@@H](Cc2ccc(OCCCCC[N+](C)(C)C)cc2)C(=O)N[C@@H](Cc2ccc3ccccc3c2)C(=O)NC2(C(=O)N[C@@H](CCC(=O)O)C(=O)N[C@@H](CC(N)=O)C(=O)N[C@@H](Cc3cccnc3)C(=O)N(C)CC(N)=O)CCOCC2)NC1=O [compound 567, MeCO-k(Me)3-Abu(1)-N-T-W-K(Ac)-aMeC(1)-TMAPF-2Nal-THP-E-N-3Pya-Sar-CONH2] (Ac-[dLys(Me3)][Abu(4-yl)]NTWK(Ac)[αMeC]Y(X3)[2Nal][Thp]EN[3Pal][Sar]-NH2; thioether 2-7) | – |
| 390 nM | 174 A^2 | CC(=O)NCCCC[C@@H]1NC(=O)[C@H](Cc2c[nH]c3ccccc23)NC(=O)[C@H]([C@@H](C)O)NC(=O)[C@H](CC(N)=O)NC(=O)[C@@H](NC(=O)[C@@H](CCCNC(=N)N)NC(C)=O)CCSC[C@@](C)(C(=O)N[C@@H](Cc2ccc(OCCCCC[N+](C)(C)C)cc2)C(=O)N[C@@H](Cc2ccc3ccccc3c2)C(=O)NC2(C(=O)N[C@@H](CCCCNC(C)=O)C(=O)N[C@@H](CC(N)=O)C(=O)N[C@@H](Cc3cccnc3)C(=O)N(C)CC(N)=O)CCOCC2)NC1=O [compound 568, MeCO-r-Abu(1)-N-T-W-K(Ac)-aMeC(1)-TMAPF-2Nal-THP-K(Ac)-N-3Pya-Sar-CONH2] (Ac-[dR][Abu(4-yl)]NTWK(Ac)[αMeC]Y(X3)[2Nal][Thp]K(Ac)N[3Pal][Sar]-NH2; thioether 2-7) | – |
| 29 nM | 154 A^2 | CCCCCCCCCCCCCC(=O)N[C@@H](CCC(=O)NCCOCCOCC(=O)NCCOCCOCC(=O)NCCCC[C@H](NC(=O)[C@H](Cc1ccc2ccccc2c1)NC(=O)[C@H](Cc1ccc(OCCCCC[N+](C)(C)C)cc1)NC(=O)[C@H]1NC(=O)[C@H](CCCCN(C)C(C)=O)NC(=O)[C@H](Cc2c[nH]c3c(C)cccc23)NC(=O)[C@H]([C@@H](C)O)NC(=O)[C@H](CC(=O)N(C)C)NC(=O)[C@@H](NC(=O)[C@@H](CCCCC[N+](C)(C)C)NC(=O)COCCOCCNC(=O)COCCOCCNC(=O)CC[C@H](NC(=O)CCCCCCCCCCCCC)C(=O)O)C(C)(C)SSC1(C)C)C(=O)N[C@@H](CC(N)=O)C(=O)N[C@@H](Cc1cccnc1)C(=O)N(C)CC(=O)N(C)C)C(=O)O [compound 570, C14gEPEG2PEG2CO-hk(Me)3-Pen(3)-N(N(Me)2)-T-7MeW-K(NMeAc)-Pen(3)-TMAPF-2Nal-K(PEG2PEG2gEC14)-N-3Pya-Sar-CON(Me)2] ({Myristoyl-γGlu-AEEA-AEEA}-[d(hLys(Me3))][Pen]D(NMe2)T[Trp(7-Me)][Lys(Me)](Ac)[Pen]Y(X3)[2Nal]K([AEEA-AEEA-γGlu-Myristoyl])N[3Pal][Sar]-NMe2; disulfide 2-7) | – |
| 5.8 nM | 166 A^2 | CCCCCCCCCCCC(=O)N[C@@H](CCC(=O)NCCOCCOCC(=O)NCCOCCOCC(=O)NCCCC[C@@H](NC(C)=O)C(=O)N[C@@H]1C(=O)N[C@@H](CC(N)=O)C(=O)N[C@@H]([C@@H](C)O)C(=O)N[C@H](Cc2c[nH]c3c(C)cccc23)C(=O)N[C@@H](CCCCNC(C)=O)C(=O)N[C@H](C(=O)N[C@@H](Cc2ccc(OCCN)cc2)C(=O)N[C@@H](Cc2ccc3ccccc3c2)C(=O)NC2(C(=O)N[C@@H](CCCCNC(C)=O)C(=O)N[C@@H](CC(N)=O)C(=O)N[C@@H](Cc3cccnc3)C(=O)N(C)CC(N)=O)CCOCC2)C(C)(C)SSC1(C)C)C(=O)N[C@H](CC(=O)O)C[N+](C)(C)C [compound 572, MeCO-canEG2PEG2gE(c)C12-Pen(3)-N-T-7MeW-K(Ac)-Pen(3)-AEF-2Nal-THP-K(Ac)-N-3Pya-Sar-CONH2] (Ac-[dK]([AEEA-AEEA-X48])[Pen]NT[dTrp(7-Me)]K(Ac)[Pen][AEF][2Nal][Thp]K(Ac)N[3Pal][Sar]-NH2; disulfide 2-7) | – |
| 650 nM | 153 A^2 | CC(=O)N(C)CCCCC(NC(=O)C1(NC(=O)[C@H](Cc2ccc3ccccc3c2)NC(=O)[C@H](Cc2ccc(OCCOCCOCC[N+](C)(C)C)cc2)NC(=O)[C@H]2NC(=O)[C@H](CCCCN(C)C(C)=O)NC(=O)[C@H](Cc3c[nH]c4c(C)cccc34)NC(=O)[C@H]([C@@H](C)O)NC(=O)[C@H](CC(=O)N(C)C)NC(=O)[C@@H](NC(=O)CCOCCOCC[N+](C)(C)C)C(C)(C)SSC2(C)C)CCOCC1)C(=O)N[C@@H](CC(N)=O)C(=O)N[C@@H](Cc1ccccc1)C(=O)N(C)CC(=O)N(C)C (some centres unmarked) [compound 573, cPEG3aCO-Pen(3)-N(N(Me)2)-T-7MeW-K(NMeAc)-Pen(3)-APEG3F-2Nal-THP-K(NMeAc)-N-F-Sar-CON(Me)2] ({Me3N+(CH2)2O(CH2)2O(CH2)2CO}-[Pen]D(NMe2)T[Trp(7-Me)][Lys(Me)](Ac)[Pen]Y(CH2CH2OCH2CH2OCH2CH2NMe3+)[2Nal][Thp][ξLys(Me)](Ac)NF[Sar]-NMe2; disulfide 1-6) | – |

| Compound | IC50 [1] | EPSA ([2]; read-out: EPSA) | EPSA [2] |
| --- | --- | --- | --- |
| cPEG3aCO-k(PEG2PEG2gEC14)-Pen(3)-N(N(Me)2)-T-7MeW-K(NMeAc)-Pen(3)-TMAPF-2Nal-THP-K(NMeAc)-N-3Pya-Sar-CON(Me)2 [compound 379] | 12 nM | – | 149.74 Å^2 |
